Source: patent US20250304549A1, “HYDROXYAMIDE DERIVATIVE AND USE THEREOF” (SICHUAN HUIYU PHARMACEUTICAL CO., LTD., priority 2022, published 2025)
Where a name gives a salt, the structure may show the parent alone.

Columns and labels:
[1] = system: NCI-H69 cells; experiment: In vitro cell inhibition assay - NCI-H69 cell proliferation (CellTiter-Glo); format: cell-based; details: Homo sapiens, NCI-H69, H69 small cell lung cancer cell proliferation
Procedure: 4. In Vitro Cell Inhibition Assay—NCI-H69 Cell Proliferation
The inhibitory effect of the compounds on cell proliferation was assessed by detecting the number of viable cells using the CellTiter-Glo® reagent. NCI-H69 cells in the logarithmic growth phase were collected and inoculated into transparent bottom 96-well plates at a density 1×10^3 cells per well with 100 μL medium, and incubated at 37° C., 5% CO2 overnight. The compounds were sequentially diluted in a 5-fold concentration gradient with DMSO to obtain 8 different concentrations These were then diluted with RPMI-640 (containing 20% FBS) cell culture medium to obtain the compounds working solution (2×), which was added to the cell supernatant at 100 μL per well. The incubation continued for 7 days at 37° C., 5% CO2. The plate was then removed and equilibrated to room temperature (25° C.) along with the CellTiter-Glo® mixing reagent for 10-30 minutes. After centrifugation at 1200 rpm for 5 minutes, 120 μL of the culture medium was carefully aspirated from each well, and 60 μL of CellTiter-Glo® reagent was added. The cells were thoroughly mixed with the CellTiter-Glo® mixing reagent using a microplate shaker for 2 min. and then incubated at room temperature for 10 min. The 96-well plate was subsequently placed on a multifunctional microplate reader to record the Luminescence values (RLU).
The inhibition rate was calculated using the following formula: […]
(§1) Note: ‘Negative’ refers to the group without inhibitors; ‘Blank’ refers to the group without cells.
(§2) The IC50 value was determined by fitting the inhibition rate by GraphPad Prism software.

[2] = system: NCI-H1417 cells; experiment: In vitro cell inhibition assay - H1417 cell proliferation (CellTiter-Glo); format: cell-based; details: Homo sapiens, NCI-H1417, H1417 small cell lung cancer cell proliferation
Procedure: 3. In Vitro Cell Inhibition Assay—H1417 Cell Proliferation
The inhibitory effect of the compounds on cell proliferation was assessed by detecting the number of viable cells using the CellTiter-Glo® reagent. […] The compounds were sequentially diluted in a 5-fold concentration gradient with DMSO to obtain 8 different concentrations o. These were diluted with BEGM (containing 10% FBS) cell culture medium to obtain the compound working solution (2×), which was added to the cell supernatant at 100 μL per well. The incubation continued for 7 days at 37° C., 5% CO2. The plate was then removed and equilibrated to room temperature (25° C.) along with the CellTiter-Glo® mixing reagent for 10-30 minutes. After centrifugation, 100 μL of the culture medium was carefully aspirated from each well, and 85 μL of CellTiter-Glo® reagent was added. The cells were thoroughly mixed with the CellTiter-Glo® mixing reagent using a microplate shaker for 2 min. and then incubated at room temperature for 10 min. The 96-well plate was subsequently placed on a multifunctional microplate reader to record the Luminescence values (RLU). • The inhibition rate was calculated using the following formula: […]
as §1, §2

[3] = target: pan-HDAC; experiment: In vitro enzyme inhibition assay - HDAC (HDAC-Glo I/II), pan-HDAC; format: biochemical
Procedure: 2. In Vitro Enzyme Inhibition Assay—HDAC
The effect of the compound on the enzymatic activity of pan-HDAC and two isoforms (HDAC1 and HDAC8) was examined using the HDAC-Glo I/II Assay and Screening System assay to assess the level of inhibition of HDAC protease activity and selectivity in each isoform. The proteins and detection reagents were from the HDAC-Glo™ I/II Assay and Screening System (Promega). A 1 mM stock solution of the compound was prepared in DMSO and diluted in a 5-fold gradient to create a series of 8 concentrations, and a specific volume of the highest concentration was diluted 25 times with HDAC Buffer to obtain 4× working solution of the compound. […] The 384-well plate was then read on a multifunctional microplate reader, with the Luminescence channel selected to record Luminescence values (RLU). The inhibition rate was calculated using the following formula: […]
(§3) Note: ‘Negative’ refers to the group without the inhibitor; ‘Blank’ refers to the group without the enzyme.
(§4) The IC50 value was calculated by fitting the inhibition rate by GraphPad Prism software, employing log (inhibitor) vs. response-Variable Slope (four parameters) model.

[4] = target: LSD1 (Homo sapiens (Human), UniProt O60341); experiment: In vitro enzyme inhibition assay - LSD1 (HTRF); format: biochemical
Procedure: 1. In Vitro Enzyme Inhibition Assay—LSD1
Initially, a master solution of 90 μM test compound (dissolved in DMSO) was prepared and sequentially diluted with DMSO in a 5-fold concentration gradient to yield a total of 9 concentrations of the compound working solution 1 (90×). Subsequently these 9 concentrations of working solution 1 were sequentially diluted by a 30-fold concentration gradient, i.e., 2 μL of working solution 1 was aspirated and added to 58 μL of Buffer, mixed on a vortex mixer with sufficient shaking to yield 9 concentrations of the screening test compound working solution 2 (3×). […] The mixture was incubated at room temperature for 15 minutes. […] Afterward, 2 μL of a termination solution (containing 5.4 mM 2-PCPA) was added to each well, mixed evenly, and incubated for another 15 minutes. Finally 4 μL of a pre-mixed antibody solution of Eu-anti H3K4 (PerkinElmer, TRF0404-D) and allophycocyanin (Prozyme, PJ27S) (1:1) was added to each well, mixed evenly, and incubated for 60 minutes. […] The inhibition rate was calculated through the following formula: […]
as §3, §4

Row | SMILES | IC50 [1] [nM] | IC50 [2] [nM] | IC50 [3] [nM] | IC50 [4] [nM]
1 | COc1ccc(-c2cnc(N3CCC(NCc4ccc(CC(F)C(=O)NO)cc4)CC3)c(C#N)c2-c2ccc(C#N)c(F)c2)cc1O (stereo not shown) [Example 219, 3-(4-((1-(3-Cyano-4-(4-cyano-3-fluorophenyl)-5-(3-hydroxy-4-methoxyphenyl)pyridin-2-yl)piperidin-4-yl)amino)methyl) phenyl)-2-fluoro-N-hydroxypropanamide formate] | 149 | 7.13 | 9.28 | 0.21
2 | COc1ccc(-c2cnc(N3CCC(NCc4ccc(/C=C(\C)C(=O)NO)nc4)CC3)c(C#N)c2-c2ccc(C#N)c(F)c2)cc1O [Example 220, (E)-3-(5-(((1-(3-Cyano-4-(4-cyano-3-fluorophenyl)-5-(3-hydroxy-4-methoxyphenyl)pyridin-2-yl)piperidin-4-yl)amino)methyl)pyridin-2-yl)-N-hydroxy-2-methylacrylamide formate] | 2290 | 6.86 | 937 | 0.42
3 | COc1ccc(-c2cnc(N3CCC(NCc4ccc(CCC(=O)NO)cc4Cl)CC3)c(C#N)c2-c2ccc(C#N)c(F)c2)cc1O [Example 222, 3-(3-chloro-4-((1-(3-cyano-4-(4-cyano-3-fluorophenyl)-5-(3-hydroxy-4-methoxyphenyl)pyridin-2-yl)piperidin-4-yl)amino)methyl) phenyl)-N-hydroxypropanamide formate] | 35.8 | 6.42 | 11.5 | 0.03
4 | CC(C)(O)Cn1nnc2cc(-c3cnc(N4CCC(NCc5ccc(/C=C/C(=O)NO)cn5)CC4)c(C#N)c3-c3ccc(C#N)c(F)c3)ccc21 [Example 224, (E)-3-(6-(((1-(3-Cyano-4-(4-cyano-3-fluorophenyl)-5-(1-(2-hydroxy-2-methylpropyl)-1H-benzo[d][1,2,3]triazol-5-yl)pyridin-2-yl)piperidin-4-yl)amino)methyl)pyridin-3-yl)-N-hydroxyacrylamide formate] | 305 | 24.5 | 10.6 | 0.19
5 | CC(C)(O)Cn1nnc2cc(-c3cnc(N4CCC(NCc5ccc(/C=C/C(=O)NO)nc5)CC4)c(C#N)c3-c3ccc(C#N)c(F)c3)ccc21 [Example 225, (E)-3-(5-(((1-(3-Cyano-4-(4-cyano-3-fluorophenyl)-5-(1-(2-hydroxy-2-methylpropyl)-1H-benzo[d][1,2,3]triazol-5-yl)pyridin-2-yl)piperidin-4-yl)amino)methyl)pyridin-2-)-N-hydroxyacrylamide formate] | 78 | 8.51 | 3.43 | 0.35
6 | CC(C)(O)Cn1nnc2cc(-c3cnc(N4CCC(NCc5ccc(/C=C/C(=O)NO)cc5)CC4)c(C#N)c3-c3ccc(C#N)c(F)c3)c(F)c(F)c21 [Example 226, (E)-3-(4-(((1-(3-Cyano-4-(4-cyano-3-fluorophenyl)-5-(6,7-difluoro-1-(2-hydroxy-2-methylpropyl)-1H-benzo[d][1,2,3]triazol-5-yl)pyridin-2-yl)piperidin-4-yl)amino)methyl)phenyl-N-hydroxyacrylamide formate] | 99.2 | 2.31 | 24.8 | 0.02
7 | COc1ccc(-c2cnc(N3CCC(CNCc4ccc(/C=C/C(=O)NO)cc4)C3)c(C#N)c2-c2ccc(C#N)c(F)c2)cc1O (stereo not shown) [Example 228, (E)-3-(4-((((1-(3-Cyano-4-(4-cyano-3-fluorophenyl)-5-(3-hydroxy-4-methoxyphenyl)pyridin-2-yl)pyrrolidin-3-yl)methyl)amino)methyl)phenyl)-N-hydroxyacrylamide hydrochloride] | 84.8 | 91.7 | 24.3 | 0.9
8 | CC1(NCc2ccc(/C=C/C(=O)NO)cc2)CCN(c2ncc(-c3ccc(OCC4(O)CC4)c(O)c3)c(-c3ccc(C#N)c(F)c3)c2C#N)CC1 [Example 229, (E)-3-(4-(1-(3-cyano-4-(4-cyano-3-fluorophenyl)-5-(3-hydroxy-4-((1-hydroxycyclopropyl)methoxy)phenyl)pyridin-2-yl)-4-methylpiperidin-4-yl)amino)methyl) phenyl)-N-hydroxyacrylamide formate] | 529 | 9.36 | 30.8 | 0.88
9 | COc1ccc(-c2cnc(N3CCC(NCc4ncc(/C=C/C(=O)NO)cc4F)CC3)c(C#N)c2-c2ccc(C#N)c(F)c2)cc1O [Example 230, (E)-3-(6-(((1-(3-Cyano-4-(4-cyano-3-fluorophenyl)-5-(3-hydroxy-4-methoxyphenyl)pyridin-2-yl)piperidin-4-yl)amino)methyl)-5-fluoropyridin-3-yl)-N-hydroxyacrylamide formate] | 77 | 4.67 | 10.3 | 1.45
10 | CC(NC1CCN(c2ncc(-c3ccc(OCC(C)(C)O)c(O)c3)c(-c3ccc(C#N)c(F)c3)c2C#N)CC1)c1ccc(/C=C/C(=O)NO)cc1 (stereo not shown) [Example 235, (E)-3-(4-(1-((1-(3-Cyano-4-(4-cyano-3-fluorophenyl)-5-(3-hydroxy-4-(2-hydroxy-2-methylpropoxy)phenyl)pyridin-2-yl)piperidin-4-yl)amino)ethyl)phenyl)-N-hydroxyacrylamide formate] | 19.2 | 2.35 | 8.01 | 2.38
11 | Cc1noc2cc(-c3cnc(N4CCC(NCc5ccc(/C=C/C(=O)NO)cn5)CC4)c(C#N)c3-c3ccc(C#N)c(F)c3)c(F)cc12 [Example 236, (E)-3-(6-(((1-(3-Cyano-4-(4-cyano-3-fluorophenyl)-5-(5-fluoro-3-methylbenzo[d]isoxazol-6-yl)pyridin-2-yl)piperidin-4-yl)amino)methyl)pyridin-3-yl)-N-hydroxyacrylamide formate] | 410 | 6.02 | 37 | 0.59
12 | N#Cc1ccc(-c2c(-c3ccc(Cl)c(O)c3)cnc(N3CCC(NCc4ccc(/C=C/C(=O)NO)cn4)CC3)c2C#N)cc1F [Example 239, (E)-3-(6-(((1-(5-(4-Chloro-3-hydroxyphenyl)-3-cyano-4-(4-cyano-3-fluorophenyl)pyridin-2-yl)piperidin-4-yl)amino)methyl)pyridin-3-yl)-N-hydroxyacrylamide formate] | 25.2 | 11.6 | 10.2 | 2.36
13 | COc1ccc(-c2cnc(N3CCC(NCc4ccc(/C=C/C(=O)NO)cc4)C(C)C3)c(C#N)c2-c2ccc(C#N)c(F)c2)cc1O (stereo not shown) [Example 242, (E)-3-(4-(((1-(3-Cyano-4-(4-cyano-3-fluorophenyl)-5-(3-hydroxy-4-methoxyphenyl)pyridin-2-yl)-3-methylpiperidin-4-yl)amino)methyl)-N-hydroxyacrylamide formate] | 17.8 | 18.4 | 16 | 2.44
